The record followed here is patent US20240174662A1, “SMALL MOLECULE INHIBITORS OF SALT INDUCIBLE KINASES” (Janssen Biotech, Inc., priority 2021, published 2024).

Broadly, the IC50 is the concentration at which inhibition is half-maximal.

This assay concerns the target SIK2 (Homo sapiens (Human), UniProt Q9H0K1). Description: SIK2 Enzymatic Assay Version 2 (High ATP). To be noted: 3 mM ATP and 200 μM HDAC5tide final, ADP-Glo Max luminescence. The class given is biochemical. Put shortly: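 Run at room temperature; SIK2 enzyme at 6 nM (2× final) preincubated with compound 30 min before reaction. ADP formation detected by ADP-Glo Max (2 h reagent, 1 h detection) with luminescence read-out.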
(In ADP-Glo the light output rises with the ADP produced.)

Chain of SIK2 (Q9H0K1 whole entry, species assumed): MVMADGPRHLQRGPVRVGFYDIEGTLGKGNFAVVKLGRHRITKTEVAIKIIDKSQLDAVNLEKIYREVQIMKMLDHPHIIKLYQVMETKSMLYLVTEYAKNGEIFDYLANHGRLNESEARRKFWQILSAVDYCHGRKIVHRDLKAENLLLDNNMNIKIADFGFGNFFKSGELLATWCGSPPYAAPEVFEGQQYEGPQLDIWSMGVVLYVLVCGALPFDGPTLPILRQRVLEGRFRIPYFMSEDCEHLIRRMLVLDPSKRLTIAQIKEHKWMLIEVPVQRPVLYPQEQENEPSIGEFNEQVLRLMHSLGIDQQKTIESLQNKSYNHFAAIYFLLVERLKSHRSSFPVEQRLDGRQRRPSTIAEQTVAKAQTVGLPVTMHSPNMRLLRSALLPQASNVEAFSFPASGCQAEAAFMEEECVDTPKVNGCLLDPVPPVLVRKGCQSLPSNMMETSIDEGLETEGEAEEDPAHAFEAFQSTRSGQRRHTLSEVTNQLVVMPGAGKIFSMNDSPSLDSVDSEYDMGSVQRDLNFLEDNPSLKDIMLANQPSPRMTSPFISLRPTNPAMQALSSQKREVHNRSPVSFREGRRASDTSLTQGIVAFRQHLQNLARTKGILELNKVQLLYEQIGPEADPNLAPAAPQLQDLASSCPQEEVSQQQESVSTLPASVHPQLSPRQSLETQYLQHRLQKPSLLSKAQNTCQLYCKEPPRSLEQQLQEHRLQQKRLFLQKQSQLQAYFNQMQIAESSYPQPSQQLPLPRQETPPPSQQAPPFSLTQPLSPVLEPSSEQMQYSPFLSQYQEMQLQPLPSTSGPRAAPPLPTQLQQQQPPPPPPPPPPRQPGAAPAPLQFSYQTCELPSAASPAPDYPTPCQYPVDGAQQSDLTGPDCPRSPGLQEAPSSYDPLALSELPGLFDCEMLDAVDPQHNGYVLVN

The compound `Cn1ncc(CO[C@H]2C[C@H]3COC[C@@H](C2)N3)c1-c1ccn2nc(NC(=O)C3CC3)cc2c1` [Example 183, N-[5-[2-methyl-4-[[(1S,5R)-3-oxa-9-azabicyclo[3.3.1]nonan-7-yl]oxymethyl]pyrazol-3-yl]pyrazolo[1,5-a]pyridin-2-yl]cyclopropanecarboxamide] yielded an IC50 of 11.7 nM.
To `C[C@@H]1CC[C@H](COc2cnn(C)c2-c2ccn3nc(NC(=O)C4CC4)cc3c2)N1C` [Example 256, N-[5-[4-[[(2R,5R)-1,5-dimethylpyrrolidin-2-yl]methoxy]-2-methyl-pyrazol-3-yl]pyrazolo[1,5-a]pyridin-2-yl]cyclopropanecarboxamide] belongs 42 nM.
`Cn1ncc(COC2(C)CNC2)c1-c1ccn2nc(NC(=O)C3CC3)cc2c1` [Example 191, N-[5-[2-methyl-4-[(3-methylazetidin-3-yl)oxymethyl]pyrazol-3-yl]pyrazolo[1,5-a]pyridin-2-yl]cyclopropanecarboxamide]: it took 11.3 nM to reach half-maximal inhibition (IC50).
`CN1CC[C@H](Oc2cnn(C)c2-c2ccn3nc(Nc4ccncn4)cc3c2)C1` [Example 455, 5-[2-methyl-4-[(3S)-1-methylpyrrolidin-3-yl]oxy-pyrazol-3-yl]-N-pyrimidin-4-yl-pyrazolo[1,5-a]pyridin-2-amine] had an IC50 of 137 nM.
The same measure for `COCCNC(=O)c1cnc(Nc2cc3cc(-c4c(OC[C@H]5CCN5C)cnn4C)ccn3n2)cn1` [Example 115, N-(2-methoxyethyl)-5-[[5-[2-methyl-4-[[(2R)-1-methylazetidin-2-yl]methoxy]pyrazol-3-yl]pyrazolo[1,5-a]pyridin-2-yl]amino]pyrazine-2-carboxamide]: 9 nM.
To `CN1CC[C@H](Oc2cnn(C)c2-c2ccn3nc(Nc4cc(C(F)(F)F)cnn4)cc3c2)C1` [Example 457, 5-[2-methyl-4-[(3S)-1-methylpyrrolidin-3-yl]oxy-pyrazol-3-yl]-N-[5-(trifluoromethyl)pyridazin-3-yl]pyrazolo[1,5-a]pyridin-2-amine] belongs 165 nM; to `Cc1cc(Nc2cc3cc(-c4c(OC[C@@H]5CCN5C)cnn4C)ccn3n2)nc(C2CC2)n1` [Example 134, N-(2-cyclopropyl-6-methyl-pyrimidin-4-yl)-5-[2-methyl-4-[[(2S)-1-methylazetidin-2-yl]methoxy]pyrazol-3-yl]pyrazolo[1,5-a]pyridin-2-amine], 2.8 nM; to `COC[C@@H]1C[C@H](Oc2noc(C)c2-c2ccn3nc(Nc4cc(C)c(C)nn4)cc3c2)CN1` [Example 390, N-(5,6-dimethylpyridazin-3-yl)-5-[3-[(3S,5S)-5-(methoxymethyl)pyrrolidin-3-yl]oxy-5-methyl-isoxazol-4-yl]pyrazolo[1,5-a]pyridin-2-amine], 70.8 nM.
The compound `CN1CC(OCc2cnn(C)c2-c2ccn3nc(NC(=O)C4CC4)cc3c2)C1` [Example 361, N-[5-[2-methyl-4-[(1-methylazetidin-3-yl)oxymethyl]pyrazol-3-yl]pyrazolo[1,5-a]pyridin-2-yl]cyclopropanecarboxamide] came in with an IC50 of 53.9 nM.
`COC1(COc2noc(C)c2-c2ccn3nc(NC(=O)C4CC4)cc3c2)CCNC1` (racemic) [Example 205, (RS)—N-[5-[3-[(3-methoxypyrrolidin-3-yl)methoxy]-5-methyl-isoxazol-4-yl]pyrazolo[1,5-a]pyridin-2-yl]cyclopropanecarboxamide] gave an IC50 of 23.5 nM.
Compound `Cc1onc(OC[C@H]2CCN2C)c1-c1ccn2nc(NC(=O)C3CC3)cc2c1` [Example 87, N-[5-[5-methyl-3-[[(2R)-1-methylazetidin-2-yl]methoxy]isoxazol-4-yl]pyrazolo[1,5-a]pyridin-2-yl]cyclopropanecarboxamide] had an IC50 of 16.5 nM.
For the compound `CN1[C@@H]2COC[C@H]1C[C@@H](OCc1cnn(C)c1-c1ccn3nc(NC(=O)C4CC4)cc3c1)C2` [Example 185, N-[5-[2-methyl-4-[[(1S,5R)-9-methyl-3-oxa-9-azabicyclo[3.3.1]nonan-7-yl]oxymethyl]pyrazol-3-yl]pyrazolo[1,5-a]pyridin-2-yl]cyclopropanecarboxamide], half-maximal inhibition (IC50) required 18.3 nM.
`CCN1CC[C@@H]1COc1cnn(C(F)F)c1-c1ccn2nc(Nc3ccnc(C)n3)cc2c1` [Example 477, 5-[2-(difluoromethyl)-4-[[(2R)-1-ethylazetidin-2-yl]methoxy]pyrazol-3-yl]-N-(2-methylpyrimidin-4-yl)pyrazolo[1,5-a]pyridin-2-amine] came in with an IC50 of 2.1 nM.
On to `CCN1CC[C@@H]1COc1cnn(C)c1-c1ccn2nc(Nc3cc(C)c(=O)n(C)n3)cc2c1` [Example 178, 6-[[5-[4-[[(2R)-1-ethylazetidin-2-yl]methoxy]-2-methyl-pyrazol-3-yl]pyrazolo[1,5-a]pyridin-2-yl]amino]-2,4-dimethyl-pyridazin-3-one], for which the IC50 was below 0.847 nM.
In turn, `COCCN1CC[C@@H]1COc1cnn(C)c1-c1ccn2nc(NC(=O)C3CC3)cc2c1` [Example 243, N-[5-[4-[[(2R)-1-(2-methoxyethyl)azetidin-2-yl]methoxy]-2-methyl-pyrazol-3-yl]pyrazolo[1,5-a]pyridin-2-yl]cyclopropanecarboxamide] yielded an IC50 of 11.3 nM.
`Cc1onc(OC[C@@](C)(N)c2ccccc2)c1-c1ccn2nc(NC(=O)C3CC3)cc2c1` [Example 225, N-[5-[3-[(2S)-2-amino-2-phenyl-propoxy]-5-methyl-isoxazol-4-yl]pyrazolo[1,5-a]pyridin-2-yl]cyclopropanecarboxamide] gave an IC50 of 12 nM.
In the case of `CN1CC(C)(COc2cnn(C)c2-c2ccn3nc(NC(=O)C4CC4)cc3c2)C1` [Example 314, N-[5-[4-[(1,3-dimethylazetidin-3-yl)methoxy]-2-methyl-pyrazol-3-yl]pyrazolo[1,5-a]pyridin-2-yl]cyclopropanecarboxamide], the IC50 is 30.4 nM.
Compound `CCN1CC[C@@H]1COc1cnn(C)c1-c1ccn2nc(Nc3ccc(C)nn3)cc2c1` [Example 68, 5-[4-[[(2R)-1-ethylazetidin-2-yl]methoxy]-2-methyl-pyrazol-3-yl]-N-(6-methylpyridazin-3-yl)pyrazolo[1,5-a]pyridin-2-amine] registered an IC50 below 0.847 nM.
To `Cc1cc(Nc2cc3cc(-c4c(CO[C@H]5CN(C)C[C@H]5C)cnn4C)ccn3n2)nc(C)n1` [Example 367, (rac-cis)-N-(2,6-dimethylpyrimidin-4-yl)-5-[4-[(1,4-dimethylpyrrolidin-3-yl)oxymethyl]-2-methyl-pyrazol-3-yl]pyrazolo[1,5-a]pyridin-2-amine] belongs 2.9 nM; to `C[C@H]1C[C@@H]1C(=O)Nc1cc2cc(-c3c(OC[C@H]4CCN4C)cnn3C)ccn2n1` [Example 15, (1S,2S)-2-methyl-N-[5-[2-methyl-4-[[(2R)-1-methylazetidin-2-yl]methoxy]pyrazol-3-yl]pyrazolo[1,5-a]pyridin-2-yl]cyclopropanecarboxamide], 9.1 nM; to `[2H]C([2H])([2H])N1CCC[C@@H]1COc1cnn(C)c1-c1ccn2nc(NC(=O)C3CC3)cc2c1` [Example 249, N-[5-[2-methyl-4-[[(2R)-1-(trideuteriomethyl)pyrrolidin-2-yl]methoxy]pyrazol-3-yl]pyrazolo[1,5-a]pyridin-2-yl]cyclopropanecarboxamide], 25.5 nM.
For `CN1CC[C@H](Oc2cnn(C)c2-c2ccn3nc(Nc4cnc5c(ccn5C)c4)cc3c2)C1` [Example 460, 1-methyl-N-[5-[2-methyl-4-[(3S)-1-methylpyrrolidin-3-yl]oxy-pyrazol-3-yl]pyrazolo[1,5-a]pyridin-2-yl]pyrrolo[2,3-b]pyridin-5-amine], the half-maximal inhibitory concentration (IC50) was 164 nM.
`Cc1cc(Nc2cc3cc(-c4c(OC[C@H]5CCN5C)cnn4C)ccn3n2)nc(C2CC2)n1` [Example 144, N-(2-cyclopropyl-6-methyl-pyrimidin-4-yl)-5-[2-methyl-4-[[(2R)-1-methylazetidin-2-yl]methoxy]pyrazol-3-yl]pyrazolo[1,5-a]pyridin-2-amine] registered an IC50 below 0.847 nM.
On to `CCn1ncc(OC[C@H]2CCN2C)c1-c1ccn2nc(Nc3cc(C)nc(C)n3)cc2c1` [Example 130, N-(2,6-dimethylpyrimidin-4-yl)-5-[2-ethyl-4-[[(2R)-1-methylazetidin-2-yl]methoxy]pyrazol-3-yl]pyrazolo[1,5-a]pyridin-2-amine], for which the IC50 is below 0.847 nM.
To `CN1CC(COc2cnn(C)c2-c2ccn3nc(NC(=O)C4CC4)cc3c2)C1` [Example 8, N-[5-[2-methyl-4-[(1-methylazetidin-3-yl)methoxy]pyrazol-3-yl]pyrazolo[1,5-a]pyridin-2-yl]cyclopropanecarboxamide] belongs 18.9 nM; to `Cc1cc(Nc2cc3cc(-c4c(OC[C@H]5CCN5C)cnn4C)ccn3n2)ncn1` [Example 55, 5-[2-methyl-4-[[(2R)-1-methylazetidin-2-yl]methoxy]pyrazol-3-yl]-N-(6-methylpyrimidin-4-yl)pyrazolo[1,5-a]pyridin-2-amine], 1.3 nM.
In turn, `Cn1ncc(OC[C@@]23CN[C@@H](CO2)C3)c1-c1ccn2nc(NC(=O)C3CC3)cc2c1` [Example 234, N-[5-[2-methyl-4-[[(1R,4R)-5-oxa-2-azabicyclo[2.2.1]heptan-4-yl]methoxy]pyrazol-3-yl]pyrazolo[1,5-a]pyridin-2-yl]cyclopropanecarboxamide] returned an IC50 of 1.1 nM.
Consider `CCN1CC[C@@H]1COc1cnn(C)c1-c1ccn2nc(Nc3cc(C)nc(C(C)(C)C)n3)cc2c1` [Example 177, N-(2-tert-butyl-6-methyl-pyrimidin-4-yl)-5-[4-[[(2R)-1-ethylazetidin-2-yl]methoxy]-2-methyl-pyrazol-3-yl]pyrazolo[1,5-a]pyridin-2-amine], for which the IC50 was found to be 1.5 nM.
Take `Cc1nccc(Nc2cc3cc(-c4c(OC[C@H]5CCCN5C)cnn4C)ccn3n2)n1` [Example 286, 5-[2-methyl-4-[[(2R)-1-methylpyrrolidin-2-yl]methoxy]pyrazol-3-yl]-N-(2-methylpyrimidin-4-yl)pyrazolo[1,5-a]pyridin-2-amine]: the IC50 is 23.5 nM.
